Assay results reported in ChEMBL document CHEMBL1158047, “Lanostane triterpenoids from the Sri Lankan basidiomycete Ganoderma applanatum” (2006).

What follows are molecules tested on P388 (assay: Cytotoxicity against mouse P388 cells).
Assay type: functional

CC(C)=CCC[C@@H](C(=O)O)[C@H]1[C@H](O)C[C@@]2(C)C3=CC[C@H]4C(C)(C)C(=O)CC[C@]4(C)C3=CC[C@]12C was tested. Which Activity did it give?
The Activity was 237 µM.

Which Activity does the source give for CC(C(=O)O)[C@@H](C)C(=O)C[C@@H](C)[C@H]1CC[C@@]2(C)C3=C(CC[C@]12C)[C@@]1(C)CC[C@@H](OC(=O)CC(=O)O)C(C)(C)[C@@H]1CC3 (stereo not given in full) [CARBOXYACETYLQUERCINIC ACID] here?
Its Activity is over 125 µg/mL.

For C/C(=C\CC[C@@H](C(=O)O)[C@H]1[C@H](O)C[C@@]2(C)C3=CC[C@H]4C(C)(C)[C@H](O)CC[C@]4(C)C3=CC[C@]12C)CO, which Activity is on record?
Its Activity is over 125 µg/mL.

Which Activity does the source give for CC(C)=CCC[C@@H](C(=O)O)[C@H]1[C@H](O)C[C@@]2(C)C3=CC[C@H]4C(C)(C)[C@H](O)CC[C@]4(C)C3=CC[C@]12C here?
Its Activity is over 125 µg/mL.

For C=C(C(=O)C[C@@H](C)[C@H]1CC[C@@]2(C)C3=C(CC[C@]12C)[C@@]1(C)CC[C@@H](OC(=O)CC(=O)O)C(C)(C)[C@@H]1CC3)C(C)C(=O)O (stereo not given in full), which Activity is on record?
Its Activity is over 125 µg/mL.
